Reference: patent US11168086B2, “Methods of synthesizing pyrazine compounds” (Hoffmann-La Roche Inc., priority 2015, dated 2021)

Test system: HBV
Experiment: HBV inhibition assay: anti-HBV activity in vitro in HepG2.2.15 cells (extracellular HBV DNA by qPCR)
Format: cell-based
Conditions: five days after compound treatment, extracellular HBV DNA in culture supernatant by qPCR, concentration at which HBV replication is inhibited by 50%
Text: Example 441: HBV Inhibition Assays
Cell Line and Culture Conditions:
HepG2.2.15 is a stably-transfected cell line containing the HBV genome. It is derived from the hepatoblastoma cell line Hep G2 (American Type Culture Collection, ATCC® HB-8065™) by the published procedures described in reference: MA Selles et al. Proc. Natl. Acad. Sci. USA 1987, 84, 1005-1009. The cell line was maintained in Dulbecco's modified Eagle's medium (DMEM)-F12 medium supplemented with 10% fetal bovine serum, 100 U/mL penicillin, 100 μg/mL streptomycin, and 0.5 mg/mL of G418.
Anti-HBV Activity In Vitro:
HepG2.2.15 cells were seeded into 96-well plates (3×10^4 cells in 100 μL media per well) and incubated overnight at 37° C. The test compounds were serially half-log diluted in DMSO, then diluted 100 times in culture media. 100 μL diluted compounds were added into the plates to reach 0.5% final concentration of DMSO in every well. Five days after compound treatment, culture supernatant was collected for further analysis.
For quantitative PCR detection of extracellular HBV DNA, culture supernatant was processed by Proteinase K digestion. After heat inactivation of the enzyme, the samples were subjected to HBV DNA quantification by qPCR. The effective compound concentration at which
HBV replication is inhibited by 50% (EC50) was determined.

SMILES: C[C@H]1Cn2ncc(N3CCCOC3=O)c2CN1C(=O)Nc1cc(F)c(F)c(F)c1 [Example 292, (6S)-6-methyl-3-(2-oxo-1,3-oxazinan-3-yl)-N-(3,4,5-trifluorophenyl)-6,7-dihydro-4H-pyrazolo[1,5-a]pyrazine-5-carboxamide]
- EC50 (Hepatitis B virus, 120 h): 48 nM

SMILES: CC1Cn2ncc(-n3cc(F)cn3)c2CN1C(=O)Nc1ccc(F)c(Cl)c1 (stereo not shown) [Example 201, N-(3-chloro-4-fluoro-phenyl)-3-(4-fluoropyrazol-1-yl)-6-methyl-6,7-dihydro-4H-pyrazolo[1,5-a]pyrazine-5-carboxamide]
- EC50 (Hepatitis B virus, 120 h): 13 nM

SMILES: CC1CN(c2cnn3c2CN(C(=O)Nc2ccc(F)c(Cl)c2)[C@@H](C)C3)C(=O)O1 (stereo partly drawn) [Example 321, (6S)—N-(3-chloro-4-fluoro-phenyl)-6-methyl-3-(5-methyl-2-oxo-oxazolidin-3-yl)-6,7-dihydro-4H-pyrazolo[1,5-a]pyrazine-5-carboxamide]
- EC50 (Hepatitis B virus, 120 h): 47 nM

SMILES: CC1C(C#N)CC(=O)N1c1cnn2c1CN(C(=O)Nc1cc(F)c(F)c(F)c1)[C@@H](C)C2 (single isomer, unassigned) [Example 420-1]
- EC50: 27 nM

SMILES: Cc1noc(C2CN(c3cnn4c3CN(C(=O)Nc3cc(F)c(F)c(F)c3)[C@@H](C)C4)C(=O)O2)n1 (stereo partly drawn) [Example 408, (6S)-6-methyl-3-[5-(3-methyl-1,2,4-oxadiazol-5-yl)-2-oxo-oxazolidin-3-yl]-N-(3,4,5-trifluorophenyl)-6,7-dihydro-4H-pyrazolo[1,5-a]pyrazine-5-carboxamide]
- EC50 (Hepatitis B virus, 120 h): 22 nM

SMILES: C[C@H]1Cn2ncc(N3CC(C)(C)COC3=O)c2CN1C(=O)Nc1cc(F)c(F)c(F)c1 [Example 294, (6S)-3-(5,5-dimethyl-2-oxo-1,3-oxazinan-3-yl)-6-methyl-N-(3,4,5-trifluorophenyl)-6,7-dihydro-4H-pyrazolo[1,5-a]pyrazine-5-carboxamide]
- EC50 (Hepatitis B virus, 120 h): 13 nM

SMILES: Cc1nnc(C2CC(=O)N(c3cnn4c3CN(C(=O)Nc3cc(F)c(F)c(F)c3)[C@@H](C)C4)C2)o1 (stereo partly drawn) [Example 283, (6S)-6-methyl-3-[4-(5-methyl-1,3,4-oxadiazol-2-yl)-2-oxo-pyrrolidin-1-yl]-N-(3,4,5-trifluorophenyl)-6,7-dihydro-4H-pyrazolo[1,5-a]pyrazine-5-carboxamide]
- EC50 (Hepatitis B virus, 120 h): 47 nM

SMILES: O=C(Nc1cccc(Cl)c1)N1CCn2ncc(-c3ccccc3F)c2C1 [Example 30, N-(3-chlorophenyl)-3-(2-fluorophenyl)-6,7-dihydro-4H-pyrazolo[1,5-a]pyrazine-5-carboxamide]
- EC50 (Hepatitis B virus, 120 h): 72 nM

SMILES: C[C@H]1Cn2ncc(N3CC(C)(C)OCC3=O)c2CN1C(=O)Nc1ccc(F)c(Cl)c1 [Example 371, (6S)—N-(3-chloro-4-fluoro-phenyl)-3-(2,2-dimethyl-5-oxo-morpholin-4-yl)-6-methyl-6,7-dihydro-4H-pyrazolo[1,5-a]pyrazine-5-carboxamide]
- EC50 (Hepatitis B virus, 120 h): 20 nM

SMILES: C[C@H]1Cn2ncc(N3CC(c4ccccn4)CC3=O)c2CN1C(=O)Nc1cc(F)c(F)c(F)c1 (stereo partly drawn) [Example 353, (6S)-6-methyl-3-[2-oxo-4-(2-pyridyl)pyrrolidin-1-yl]-N-(3,4,5-trifluorophenyl)-6,7-dihydro-4H-pyrazolo[1,5-a]pyrazine-5-carboxamide]
- EC50 (Hepatitis B virus, 120 h): 5 nM

SMILES: C[C@H]1Cn2ncc(N3CC(C(=O)N4CCOC(C)(C)C4)CC3=O)c2CN1C(=O)Nc1cc(F)c(F)c(F)c1 (stereo partly drawn) [Example 393, (6S)-3-[4-(2,2-dimethylmorpholine-4-carbonyl)-2-oxo-pyrrolidin-1-yl]-6-methyl-N-(3,4,5-trifluorophenyl)-6,7-dihydro-4H-pyrazolo[1,5-a]pyrazine-5-carboxamide]
- EC50 (Hepatitis B virus, 120 h): 70 nM

SMILES: O=C(Nc1cc(F)c(F)c(F)c1)N1CCn2ncc(-c3ccc(F)cc3F)c2C1 [Example 51, 3-(2,4-difluorophenyl)-N-(3,4,5-trifluorophenyl)-6,7-dihydro-4H-pyrazolo[1,5-a]pyrazine-5-carboxamide]
- EC50 (Hepatitis B virus, 120 h): 68 nM

SMILES: C[C@@H]1CN(C(=O)C2CC(=O)N(c3cnn4c3CN(C(=O)Nc3cc(F)c(F)c(F)c3)[C@@H](C)C4)C2)C[C@H](C)O1 (stereo partly drawn) [Example 397, (6S)-3-[4-[cis-2,6-dimethylmorpholine-4-carbonyl]-2-oxo-pyrrolidin-1-yl]-6-methyl-N-(3,4,5-trifluorophenyl)-6,7-dihydro-4H-pyrazolo[1,5-a]pyrazine-5-carboxamide]
- EC50 (Hepatitis B virus, 120 h): 60 nM

SMILES: Cc1cc(NC(=O)N2CCn3cnc(-c4ccc(F)cc4F)c3C2)cc(F)c1F [Example 167, N-(3,4-difluoro-5-methyl-phenyl)-1-(2,4-difluorophenyl)-6,8-dihydro-5H-imidazo[1,5-a]pyrazine-7-carboxamide]
- EC50 (Hepatitis B virus, 120 h): 15 nM

SMILES: CC1C(C#N)CC(=O)N1c1cnn2c1CN(C(=O)Nc1cc(F)c(F)c(F)c1)[C@@H](C)C2 (single isomer, unassigned) [Example 420-3]
- EC50: 3 nM

SMILES: CC1Cn2ncc(-c3ccc(F)cn3)c2CN1C(=O)Nc1ccc(F)c(C2CC2)c1 (stereo not shown) [Example 157, N-(3-cyclopropyl-4-fluoro-phenyl)-3-(5-fluoro-2-pyridyl)-6-methyl-6,7-dihydro-4H-pyrazolo[1,5-a]pyrazine-5-carboxamide]
- EC50 (Hepatitis B virus, 120 h): 83 nM

SMILES: CC1Cn2ncc(-n3cc(C#N)cn3)c2CN1C(=O)Nc1ccc(F)c(Cl)c1 (stereo not shown) [Example 200, N-(3-chloro-4-fluoro-phenyl)-3-(4-cyanopyrazol-1-yl)-6-methyl-6,7-dihydro-4H-pyrazolo[1,5-a]pyrazine-5-carboxamide]
- EC50 (Hepatitis B virus, 120 h): 38 nM

SMILES: C[C@H]1Cn2ncc(N3CC(c4nnc(C(F)(F)F)o4)CC3=O)c2CN1C(=O)Nc1cc(F)c(F)c(F)c1 (stereo partly drawn) [Example 286, (6S)-6-methyl-3-[2-oxo-4-[5-(trifluoromethyl)-1,3,4-oxadiazol-2-yl]pyrrolidin-1-yl]-N-(3,4,5-trifluorophenyl)-6,7-dihydro-4H-pyrazolo[1,5-a]pyrazine-5-carboxamide]
- EC50 (Hepatitis B virus, 120 h): 26 nM

SMILES: CC1Cn2ncc(-c3ccc(F)cc3F)c2CN1C(=O)Nc1cc(F)c(F)c(F)c1 (stereo not shown) [Example 178, 3-(2,4-difluorophenyl)-6-methyl-N-(3,4,5-trifluorophenyl)-6,7-dihydro-4H-pyrazolo[1,5-a]pyrazine-5-carboxamide]
- EC50 (Hepatitis B virus, 120 h): 13 nM

SMILES: C[C@H]1Cn2ncc(N3C(=O)Cc4ccccc43)c2CN1C(=O)Nc1cc(F)c(F)c(F)c1 [Example 338, (6S)-6-methyl-3-(2-oxoindolin-1-yl)-N-(3,4,5-trifluorophenyl)-6,7-dihydro-4H-pyrazolo[1,5-a]pyrazine-5-carboxamide]
- EC50 (Hepatitis B virus, 120 h): 14 nM

SMILES: C[C@H]1Cn2ncc(N3CCCC3=O)c2CN1C(=O)Nc1cc(F)c(F)c(Cl)c1 [Example 231, (6S)—N-(3-chloro-4,5-difluoro-phenyl)-6-methyl-3-(2-oxopyrrolidin-1-yl)-6,7-dihydro-4H-pyrazolo[1,5-a]pyrazine-5-carboxamide]
- EC50 (Hepatitis B virus, 120 h): 25 nM

SMILES: C[C@H]1Cn2ncc(N3CC4(CC3=O)CN(c3ncccn3)C4)c2CN1C(=O)Nc1cc(F)c(F)c(F)c1 [Example 337, (6S)-6-methyl-3-(7-oxo-2-pyrimidin-2-yl-2,6-diazaspiro[3.4]octan-6-yl)-N-(3,4,5-trifluorophenyl)-6,7-dihydro-4H-pyrazolo[1,5-a]pyrazine-5-carboxamide]
- EC50 (Hepatitis B virus, 120 h): 15 nM

SMILES: C[C@H]1Cn2ncc(N3CN(S(C)(=O)=O)CC3=O)c2CN1C(=O)Nc1cc(F)c(F)c(F)c1 [Example 248, (6S)-6-methyl-3-(3-methylsulfonyl-5-oxo-imidazolidin-1-yl)-N-(3,4,5-trifluorophenyl)-6,7-dihydro-4H-pyrazolo[1,5-a]pyrazine-5-carboxamide]
- EC50 (Hepatitis B virus, 120 h): 93 nM

SMILES: C[C@H]1[C@H](C)n2ncc(N3CCOCC3=O)c2CN1C(=O)Nc1cc(F)c(F)c(F)c1 [Example 274, (6S,7S)-6,7-dimethyl-3-(3-oxomorpholin-4-yl)-N-(3,4,5-trifluorophenyl)-6,7-dihydro-4H-pyrazolo[1,5-a]pyrazine-5-carboxamide]
- EC50 (Hepatitis B virus, 120 h): 40 nM

SMILES: C[C@H]1Cn2ncc(N3CC(c4cncs4)CC3=O)c2CN1C(=O)Nc1cc(F)c(F)c(F)c1 (stereo partly drawn) [Example 290, (6S)-6-methyl-3-(2-oxo-4-thiazol-5-yl-pyrrolidin-1-yl)-N-(3,4,5-trifluorophenyl)-6,7-dihydro-4H-pyrazolo[1,5-a]pyrazine-5-carboxamide]
- EC50 (Hepatitis B virus, 120 h): 11 nM

SMILES: C[C@H]1Cn2ncc(N3CC(COc4ncccn4)CC3=O)c2CN1C(=O)Nc1cc(F)c(F)c(F)c1 (stereo partly drawn) [Example 267, (6S)-6-methyl-3-[2-oxo-4-(pyrimidin-2-yloxymethyl)pyrrolidin-1-yl]-N-(3,4,5-trifluorophenyl)-6,7-dihydro-4H-pyrazolo[1,5-a]pyrazine-5-carboxamide]
- EC50 (Hepatitis B virus, 120 h): 39 nM

SMILES: O=C(Nc1ccc(F)c(Cl)c1)N1CCn2ncc(-c3cc(C(F)(F)F)ccn3)c2C1 [Example 67, N-(3-chloro-4-fluoro-phenyl)-3-[4-(trifluoromethyl)-2-pyridyl]-6,7-dihydro-4H-pyrazolo[1,5-a]pyrazine-5-carboxamide]
- EC50 (Hepatitis B virus, 120 h): 29 nM

SMILES: C[C@H]1Cn2ncc(N3CC4(CC4)OC3=O)c2CN1C(=O)Nc1cc(F)c(F)c(F)c1 [Example 331, (6S)-6-methyl-3-(5-oxo-4-oxa-6-azaspiro[2.4]heptan-6-yl)-N-(3,4,5-trifluorophenyl)-6,7-dihydro-4H-pyrazolo[1,5-a]pyrazine-5-carboxamide]
- EC50 (Hepatitis B virus, 120 h): 12 nM
